Data on two molecules can be found in patent publication US9962453B2, “Immunogenic compound” (ALTIMMUNE UK LIMITED, priority 2013, dated 2018).

The test system of assay [1] is T cell immune response to FP-02.2 vaccine peptides. The assay is classed as in vivo, BALB/c mice. As to conditions: conclusions of Example 2.
Assay [2] deals with T1, human TLR7 (Homo sapiens, UniProt Q9NYK1).
T1 construct: host or cells: HEK-Blue-hTLR7 (HEK293)
T1 sequence (Q9NYK1 27-1049): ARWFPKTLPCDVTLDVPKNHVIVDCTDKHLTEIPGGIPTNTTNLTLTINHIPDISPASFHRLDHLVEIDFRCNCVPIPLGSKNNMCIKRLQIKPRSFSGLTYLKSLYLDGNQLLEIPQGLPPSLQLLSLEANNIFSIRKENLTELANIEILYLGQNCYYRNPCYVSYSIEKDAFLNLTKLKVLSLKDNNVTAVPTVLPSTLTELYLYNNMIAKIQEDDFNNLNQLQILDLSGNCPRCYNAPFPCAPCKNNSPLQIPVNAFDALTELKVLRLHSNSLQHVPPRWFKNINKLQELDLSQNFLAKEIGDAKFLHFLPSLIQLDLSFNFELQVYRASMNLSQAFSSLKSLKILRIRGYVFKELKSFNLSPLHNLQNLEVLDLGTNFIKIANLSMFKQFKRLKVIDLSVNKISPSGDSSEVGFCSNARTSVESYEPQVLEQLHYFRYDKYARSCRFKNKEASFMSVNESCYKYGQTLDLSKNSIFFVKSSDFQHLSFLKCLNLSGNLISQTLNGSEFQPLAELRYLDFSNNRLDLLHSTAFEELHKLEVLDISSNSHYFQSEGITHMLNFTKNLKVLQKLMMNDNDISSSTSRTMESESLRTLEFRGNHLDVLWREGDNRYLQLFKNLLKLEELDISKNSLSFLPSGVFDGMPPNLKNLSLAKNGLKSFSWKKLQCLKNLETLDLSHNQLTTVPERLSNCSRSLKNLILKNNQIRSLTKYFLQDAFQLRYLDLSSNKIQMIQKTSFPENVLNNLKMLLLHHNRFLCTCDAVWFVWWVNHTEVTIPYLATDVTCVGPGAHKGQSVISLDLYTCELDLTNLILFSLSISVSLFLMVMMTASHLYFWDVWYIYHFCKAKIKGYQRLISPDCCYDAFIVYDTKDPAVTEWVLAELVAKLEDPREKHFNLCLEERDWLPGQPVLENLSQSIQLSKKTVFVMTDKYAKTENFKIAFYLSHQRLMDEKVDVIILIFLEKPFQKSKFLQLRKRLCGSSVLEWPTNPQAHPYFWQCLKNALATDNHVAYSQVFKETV
Nature of the assay: Human TLR7 HEK-Blue reporter gene assay (NF-kappaB activation, SEAP). It is filed as cell-based. To be noted: in comparison with R848. How it is done:
(§1) The activity of different TLR-7 or TLR-8 agonist were tested using human TLR-specific HEK-Blue™ reporter gene assays (Invivogen, France). HEK-Blue™-hTLR7 cells and HEK-Blue™-hTLR8 cells were obtained by co-transfection of the human TLR7 gene or human TLR8 genes and an inducible SEAP (secreted embryonic alkaline phosphatase) reporter gene into HEK293 cells. The SEAP gene is placed under the control of the IFN-β minimal promoter fused to five NF-kappaB and AP-1-binding sites. Stimulation with a TLR ligand activates NF-kappaB and AP-1 which induce the production of SEAP. Cells were maintained in HEK-Blue™ selection medium containing Blasticidin, Zeocin and Normocin. HEK-Blue™ cells were incubated at a density of 10^5 cells/mL in a volume of 200 ul in 96 well plates. In the presence of the HEK-Blue™ detection media, the secretion of SEAP (proportional to the to the NF-kappaB induction) was quantified at […].
A general note: Reporter assays use an easily measured gene product as a stand-in for the process of interest.

For assay [3], the target named is T2, human TLR8 (Homo sapiens, UniProt Q9NR97).
T2 construct: host or cells: HEK-Blue-hTLR8 (HEK293)
T2 sequence (Q9NR97 27-1041): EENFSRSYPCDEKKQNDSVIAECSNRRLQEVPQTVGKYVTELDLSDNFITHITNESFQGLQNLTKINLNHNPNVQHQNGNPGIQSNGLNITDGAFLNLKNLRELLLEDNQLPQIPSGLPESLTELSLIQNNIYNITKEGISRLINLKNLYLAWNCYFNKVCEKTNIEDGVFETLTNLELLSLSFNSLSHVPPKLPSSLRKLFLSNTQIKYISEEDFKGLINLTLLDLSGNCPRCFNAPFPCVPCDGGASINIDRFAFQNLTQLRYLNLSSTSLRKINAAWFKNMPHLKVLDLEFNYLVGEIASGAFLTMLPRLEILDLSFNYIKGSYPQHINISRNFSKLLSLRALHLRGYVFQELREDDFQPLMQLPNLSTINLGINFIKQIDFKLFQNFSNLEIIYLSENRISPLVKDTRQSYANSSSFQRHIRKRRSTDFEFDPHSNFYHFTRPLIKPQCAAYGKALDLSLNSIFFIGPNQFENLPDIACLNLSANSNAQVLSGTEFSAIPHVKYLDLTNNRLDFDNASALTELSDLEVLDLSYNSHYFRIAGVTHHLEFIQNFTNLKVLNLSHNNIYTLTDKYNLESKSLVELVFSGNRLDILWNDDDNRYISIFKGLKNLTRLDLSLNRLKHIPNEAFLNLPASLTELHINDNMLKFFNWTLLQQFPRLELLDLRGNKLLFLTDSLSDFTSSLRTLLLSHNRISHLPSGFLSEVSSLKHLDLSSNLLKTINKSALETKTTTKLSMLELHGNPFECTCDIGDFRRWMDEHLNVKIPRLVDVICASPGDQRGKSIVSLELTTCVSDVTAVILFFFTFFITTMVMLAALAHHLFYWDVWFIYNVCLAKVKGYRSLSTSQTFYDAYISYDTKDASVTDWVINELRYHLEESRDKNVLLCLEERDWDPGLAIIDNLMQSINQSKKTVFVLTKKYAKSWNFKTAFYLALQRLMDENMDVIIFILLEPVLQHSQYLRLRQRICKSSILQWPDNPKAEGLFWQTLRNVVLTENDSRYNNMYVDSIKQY
Kind of assay: Human TLR8 HEK-Blue reporter gene assay (NF-kappaB activation, SEAP). It is filed as cell-based. To be noted: in comparison with R848. As to the method: as §1

Where a name gives a salt, the structure may show the parent alone. No end group written: not given here. PEG‑FIM = not defined here

Take `CCOCc1nc2c(N)nc3ccccc3c2n1CC(C)(C)O` [Peptide R848, [4-Amino-2-(ethoxymethyl)-1H-imidazo[4,5-c]quinolin-1-yl]-2-methyl-2-propanol, HCl, reference compound]: the “adjuvanticity, conjugates versus free R848” value in assay [1] was “little to no-adjuvanticity”. Moreover, the “NF-kappaB activation in HEK-293 cells expressing TLR-7” value in assay [2] is “highly active”. For the same molecule, the “NF-kappaB activation in HEK-293 cells expressing TLR-8” value in assay [3] is on record as “highly active”.
With “RLK(PEG-FIM)-NH2 (Arg-Leu-Lys(PEG‑FIM)-NH2; reading uncertain; also: printed as RLK(PEG-FIM)-NH2) [RLK-PEG-FIM-01]”, the “NF-kappaB activation in HEK-293 cells expressing TLR-7” value in assay [2] is “also active in the TLR-7 and TLR-8 cell line but to a much lesser extent compared to R848”. The “NF-kappaB activation in HEK-293 cells expressing TLR-8” value in assay [3] was “also active in the TLR-7 and TLR-8 cell line but to a much lesser extent compared to R848”.
